According to ChEMBL document CHEMBL1201862, “PubChem BioAssay data set” (2004):
“And” between values parts separate entries of the source, which are not always exact repeats. Equal values may be shown once. The source made the active and inactive calls.

What was measured:
[1] = target: T1, Beta-2 adrenergic receptor (Homo sapiens, UniProt P07550); assay: Dose response for HTS for Beta-2AR agonists via FAP method from Powderset1.; format: functional
[2] = target: T1, Beta-2 adrenergic receptor; assay: ADRB2 activation measured by internalization – cell-based, FAP fluorogen, flow cytometry, cherry pick 1, dose response (AID 588763); format: functional
[3] = target: T2, Replicative DNA helicase DnaB (Mycobacterium tuberculosis, UniProt P9WMR3); assay: DnaB intein splicing inhibitors, dose response, biochemical, cell-free fluorescence (AID 449749); format: functional
T2 sequence (P9WMR3 whole entry): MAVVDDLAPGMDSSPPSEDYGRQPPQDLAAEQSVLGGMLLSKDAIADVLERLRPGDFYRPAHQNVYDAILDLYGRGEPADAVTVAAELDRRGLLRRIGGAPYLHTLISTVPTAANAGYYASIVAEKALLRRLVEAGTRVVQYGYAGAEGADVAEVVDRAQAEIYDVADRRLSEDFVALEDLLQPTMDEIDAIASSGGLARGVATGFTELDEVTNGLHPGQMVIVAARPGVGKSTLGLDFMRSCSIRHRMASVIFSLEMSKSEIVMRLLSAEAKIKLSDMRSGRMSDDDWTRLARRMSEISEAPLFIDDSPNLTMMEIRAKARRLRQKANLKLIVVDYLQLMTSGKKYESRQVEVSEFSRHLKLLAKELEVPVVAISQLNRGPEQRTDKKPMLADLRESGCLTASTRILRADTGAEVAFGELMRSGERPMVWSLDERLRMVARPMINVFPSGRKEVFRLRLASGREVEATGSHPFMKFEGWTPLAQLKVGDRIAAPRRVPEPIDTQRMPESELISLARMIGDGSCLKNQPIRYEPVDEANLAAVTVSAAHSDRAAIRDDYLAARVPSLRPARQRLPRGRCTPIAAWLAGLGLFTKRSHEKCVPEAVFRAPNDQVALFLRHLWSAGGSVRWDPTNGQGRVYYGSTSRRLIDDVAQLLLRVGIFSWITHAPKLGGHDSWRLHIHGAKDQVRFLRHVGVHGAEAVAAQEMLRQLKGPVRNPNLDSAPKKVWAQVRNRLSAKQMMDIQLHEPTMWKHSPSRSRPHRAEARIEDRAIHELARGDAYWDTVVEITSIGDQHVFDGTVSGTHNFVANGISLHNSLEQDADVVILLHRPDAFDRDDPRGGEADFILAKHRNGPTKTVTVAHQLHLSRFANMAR

Vero = assay: viability of Vero cells under compound – cytotoxicity control for flavivirus capping enzyme inhibitors (AID 588742); format: functional; details: Chlorocebus sabaeus
Protein RecA = target: T3, Protein RecA (Mycobacterium tuberculosis, UniProt P9WHJ3); assay: Fluorescence Cell-Free Homogeneous Dose Retest to Identify Inhibitors of RecA-Intein Splicing Activity. [Related pubchem assays (depositor defined):AID2097, AID2223, AID489010, AID492950]; format: functional
T3 sequence (P9WHJ3 whole entry): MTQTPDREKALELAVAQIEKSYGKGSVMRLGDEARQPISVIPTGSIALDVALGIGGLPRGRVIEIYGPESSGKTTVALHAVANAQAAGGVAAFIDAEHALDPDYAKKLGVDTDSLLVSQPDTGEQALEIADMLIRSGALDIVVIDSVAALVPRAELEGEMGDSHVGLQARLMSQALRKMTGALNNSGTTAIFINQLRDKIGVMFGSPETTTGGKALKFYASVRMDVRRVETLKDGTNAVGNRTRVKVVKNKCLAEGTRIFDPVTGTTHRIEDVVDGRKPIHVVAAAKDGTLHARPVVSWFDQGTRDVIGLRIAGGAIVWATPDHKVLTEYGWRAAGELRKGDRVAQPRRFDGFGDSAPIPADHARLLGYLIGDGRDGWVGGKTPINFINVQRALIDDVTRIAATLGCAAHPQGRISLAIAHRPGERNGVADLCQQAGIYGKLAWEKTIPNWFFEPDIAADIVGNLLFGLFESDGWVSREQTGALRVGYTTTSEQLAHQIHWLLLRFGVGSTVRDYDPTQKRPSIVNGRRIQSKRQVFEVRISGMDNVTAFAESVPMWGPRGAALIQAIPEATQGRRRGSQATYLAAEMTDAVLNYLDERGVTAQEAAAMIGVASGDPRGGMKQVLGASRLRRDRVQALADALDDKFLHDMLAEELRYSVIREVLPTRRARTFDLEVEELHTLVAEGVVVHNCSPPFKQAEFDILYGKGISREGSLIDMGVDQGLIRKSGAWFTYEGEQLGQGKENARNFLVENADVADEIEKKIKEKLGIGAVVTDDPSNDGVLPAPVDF

Genome polyprotein = Genome polyprotein (dengue virus type 2, UniProt P29990); assay: flavivirus cap methylation enzyme inhibition – biochemical, confirmation dose response, primary screen (AID 588689); format: functional
[4] = target: Hepatocyte nuclear factor 4-alpha (Homo sapiens, UniProt P41235); format: functional, cell-based;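 further: biochemical luminescence-based dose-response counterscreen measuring inhibition of HNF4 dimerization, run alongside a screen for blockers of ABHD5–perilipin-5 interaction; split luciferase complementation of HNF4 fusion proteins in cell lysate measuring dimerization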
Beta-lactamase [5] = target: Beta-lactamase (Salmonella choleraesuis (strain SC-B67), UniProt Q5J463); assay: Epi-absorbance-based counterscreen for selective VIM-2 inhibitors: dose response biochemical high throughput screening assay to identify inhibitors of TEM-1 serine-beta-lactamase.
Beta-lactamase [6] = target: T4, Beta-lactamase (Pseudomonas aeruginosa, UniProt Q79MP6); assay: inhibition of IMP-1 beta-lactamase activity – biochemical, epi-absorbance, selectivity assay for VIM-2 inhibitor project, dose response (AID 1920)
Beta-lactamase [7] = target: T4, Beta-lactamase; assay: […] counterscreen for selective VIM-2 inhibitors: dose response biochemical high throughput screening assay to identify inhibitors of IMP-1 metallo-beta-lactamase.
[8] = cytotoxicity toward MDA-MB-231 breast cancer cells – cell-based, CellTiter-Glo luminescence, cherry-pick, cytotoxicity control for RAD54 inhibitor project, dose response (AID 651692); format: functional
[9] = target: T5, DNA repair and recombination protein RAD54-like (Homo sapiens, UniProt Q92698); assay: RAD54 Holliday junction migration blockers – biochemical, fluorescence, cherry-picked samples, dose series, confirmation (AID 651657); format: functional
T5 sequence (Q92698 whole entry): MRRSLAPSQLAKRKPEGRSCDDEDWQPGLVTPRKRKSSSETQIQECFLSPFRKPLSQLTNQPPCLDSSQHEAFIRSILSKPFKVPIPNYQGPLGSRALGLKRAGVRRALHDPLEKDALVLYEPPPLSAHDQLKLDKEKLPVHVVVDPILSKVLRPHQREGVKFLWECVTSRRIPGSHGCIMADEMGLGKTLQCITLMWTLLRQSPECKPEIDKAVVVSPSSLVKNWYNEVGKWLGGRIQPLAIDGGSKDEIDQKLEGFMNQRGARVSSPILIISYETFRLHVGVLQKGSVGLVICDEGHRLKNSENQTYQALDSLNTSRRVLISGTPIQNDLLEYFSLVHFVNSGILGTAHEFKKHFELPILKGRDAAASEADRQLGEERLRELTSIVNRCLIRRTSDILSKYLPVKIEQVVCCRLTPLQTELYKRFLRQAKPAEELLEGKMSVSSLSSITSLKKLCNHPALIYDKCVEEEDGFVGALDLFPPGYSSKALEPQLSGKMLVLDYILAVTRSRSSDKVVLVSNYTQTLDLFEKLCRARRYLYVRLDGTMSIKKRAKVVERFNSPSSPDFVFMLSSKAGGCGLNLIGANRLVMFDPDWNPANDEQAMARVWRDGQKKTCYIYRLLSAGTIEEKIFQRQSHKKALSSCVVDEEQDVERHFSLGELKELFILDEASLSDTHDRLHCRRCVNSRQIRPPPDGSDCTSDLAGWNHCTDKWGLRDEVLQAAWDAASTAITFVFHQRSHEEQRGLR

T1 sequence (P07550 whole entry): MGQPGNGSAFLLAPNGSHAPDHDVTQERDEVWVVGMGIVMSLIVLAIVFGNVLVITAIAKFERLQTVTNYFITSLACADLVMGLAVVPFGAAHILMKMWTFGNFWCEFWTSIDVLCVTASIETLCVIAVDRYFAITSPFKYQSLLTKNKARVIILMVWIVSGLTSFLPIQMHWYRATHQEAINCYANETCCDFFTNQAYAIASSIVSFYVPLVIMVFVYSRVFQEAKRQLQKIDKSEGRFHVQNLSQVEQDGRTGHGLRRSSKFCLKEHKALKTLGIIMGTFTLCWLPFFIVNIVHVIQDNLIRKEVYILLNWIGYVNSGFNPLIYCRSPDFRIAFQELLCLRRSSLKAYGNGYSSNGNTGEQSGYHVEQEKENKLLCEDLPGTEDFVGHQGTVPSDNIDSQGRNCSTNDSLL
T4 sequence (Q79MP6 whole entry): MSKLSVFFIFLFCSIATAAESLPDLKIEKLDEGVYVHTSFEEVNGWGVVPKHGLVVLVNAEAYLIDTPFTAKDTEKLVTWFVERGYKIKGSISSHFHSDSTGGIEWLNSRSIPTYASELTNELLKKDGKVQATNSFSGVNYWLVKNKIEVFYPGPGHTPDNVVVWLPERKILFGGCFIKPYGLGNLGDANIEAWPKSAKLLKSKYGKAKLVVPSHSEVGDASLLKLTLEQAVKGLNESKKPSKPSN
Hepatocyte nuclear factor 4-alpha, sequence (P41235 whole entry, the tested form may be a part): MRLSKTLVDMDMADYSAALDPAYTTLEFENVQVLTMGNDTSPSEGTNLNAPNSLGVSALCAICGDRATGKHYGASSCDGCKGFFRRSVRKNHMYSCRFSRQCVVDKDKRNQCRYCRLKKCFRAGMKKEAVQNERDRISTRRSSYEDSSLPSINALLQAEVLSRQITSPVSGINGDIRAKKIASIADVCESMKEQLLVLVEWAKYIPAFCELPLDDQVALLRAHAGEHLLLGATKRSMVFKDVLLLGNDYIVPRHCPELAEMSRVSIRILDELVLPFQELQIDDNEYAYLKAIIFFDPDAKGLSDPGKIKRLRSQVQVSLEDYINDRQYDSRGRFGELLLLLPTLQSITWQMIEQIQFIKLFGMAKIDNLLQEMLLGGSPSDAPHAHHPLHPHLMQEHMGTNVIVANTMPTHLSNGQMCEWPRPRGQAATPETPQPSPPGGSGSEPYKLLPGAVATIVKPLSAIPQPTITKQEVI
Genome polyprotein, sequence (P29990 2492-3391 limits assumed): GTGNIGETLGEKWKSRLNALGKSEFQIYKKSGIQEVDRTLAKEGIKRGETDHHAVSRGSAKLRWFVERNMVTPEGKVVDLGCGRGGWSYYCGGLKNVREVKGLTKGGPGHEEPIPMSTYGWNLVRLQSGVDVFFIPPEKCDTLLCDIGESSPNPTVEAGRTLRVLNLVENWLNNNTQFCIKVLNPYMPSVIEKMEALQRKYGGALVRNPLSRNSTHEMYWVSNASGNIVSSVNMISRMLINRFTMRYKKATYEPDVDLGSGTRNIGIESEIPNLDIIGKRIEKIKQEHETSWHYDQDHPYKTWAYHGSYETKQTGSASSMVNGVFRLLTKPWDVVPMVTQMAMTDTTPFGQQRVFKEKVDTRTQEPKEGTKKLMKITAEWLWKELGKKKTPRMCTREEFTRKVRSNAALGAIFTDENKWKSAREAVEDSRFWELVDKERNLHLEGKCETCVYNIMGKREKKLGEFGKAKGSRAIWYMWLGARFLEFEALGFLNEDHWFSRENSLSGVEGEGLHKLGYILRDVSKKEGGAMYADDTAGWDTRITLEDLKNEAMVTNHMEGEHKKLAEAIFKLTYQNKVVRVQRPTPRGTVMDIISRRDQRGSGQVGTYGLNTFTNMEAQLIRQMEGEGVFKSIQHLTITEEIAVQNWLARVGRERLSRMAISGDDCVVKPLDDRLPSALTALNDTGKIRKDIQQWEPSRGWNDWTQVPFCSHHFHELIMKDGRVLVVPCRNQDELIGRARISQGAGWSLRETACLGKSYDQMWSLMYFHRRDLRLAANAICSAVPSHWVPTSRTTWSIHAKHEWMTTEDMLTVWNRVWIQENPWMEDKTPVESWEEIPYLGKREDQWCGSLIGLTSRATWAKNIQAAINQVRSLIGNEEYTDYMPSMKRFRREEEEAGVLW
Beta-lactamase (Salmonella choleraesuis (strain SC-B67), UniProt Q5J463), sequence (Q5J463 whole entry): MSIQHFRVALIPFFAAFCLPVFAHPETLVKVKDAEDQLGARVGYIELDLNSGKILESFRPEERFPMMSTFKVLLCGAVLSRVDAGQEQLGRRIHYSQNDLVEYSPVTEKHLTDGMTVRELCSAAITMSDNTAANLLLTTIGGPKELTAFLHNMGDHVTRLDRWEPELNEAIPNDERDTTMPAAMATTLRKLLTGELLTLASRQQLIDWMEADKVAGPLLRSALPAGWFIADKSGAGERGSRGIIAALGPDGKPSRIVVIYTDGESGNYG

**Q.** For CN(CC(=O)N1CCN(c2ccccn2)CC1)S(=O)(=O)c1ccc(Br)cc1, which EC50 [1] is on record?
**A.** 0.0191 µM (active)

**Q.** And the EC50 [2]?
**A.** 82.8 nM (active) and 35.6 nM (active)

**Q.** What does the source list for CC(=O)Oc1c(Br)cc(N(C(C)=O)S(=O)(=O)c2ccccc2)c2ccccc12?
**A.** AC50 [3]: 3.76 µM (active); CC50 (Vero): 39.8 µM (active); EC50 (Protein RecA): 2.81 µM (active); IC50 (Genome polyprotein): 49.8 µM (active); IC50 [4]: 6.11 µM (active)

**Q.** With O=C(CSc1nnc(NC(=O)c2ccccc2)s1)NCc1ccco1 as the compound, how does the IC50 (Beta-lactamase [5]) read?
**A.** > 59.6 µM (inactive)

**Q.** And the IC50 (Beta-lactamase [6])?
**A.** > 59.6 µM (inactive)

**Q.** And the IC50 (Beta-lactamase [7])?
**A.** > 59.6 µM (inactive)

**Q.** With CCOC(=O)N1CCN(S(=O)(=O)c2ccc(C(=O)Nc3sc4c(c3C(=O)OC)CCN(C)C4)cc2)CC1 as the compound, how does the AC50 [8] read?
**A.** 17.1 µM (active)

**Q.** And the AC50 [9]?
**A.** 16.8 µM (active)
